In data set [1] the test system is Trypanosoma cruzi epimastigotes (Tulahuen CL98 strain). Nature of the data set: Antitrypanosomal activity against Trypanosoma cruzi epimastigotes (parasite count). In kind it is cell-based. The following applies: for IC50: T. cruzi epimastigotes, 48 h, mean ± S.E. of three experiments, read-out: Antitrypanocidal activity IC50; for Selectivity Index (Cytotoxicity/Activity): ratio of IC50 for fibroblast cells/IC50 for parasites; for Selectivity index greater/better than nifurtimox: in vitro selectivity index relative to nifurtimox. The procedure: (§1) The antitrypanosomal activity against Trypanosoma cruzi was assayed. Trypanosoma cruzi epimastigotes (Tulahuen CL98 strain) were cultured in liver infusion trypose (LIT) medium supplemented with 10% fetal bovine serum (FBS) at 28° C., with an inoculum of 1×10^5 cells/ml. […] All assays were carried out in triplicate. […] The data were subjected to statistical analysis. All experiments were done in triplicate, the means and standard errors (S.E.) were determined. Data were analyzed by one way ANOVA and Tukey's multiple comparison test using GraphPad PRISM software version 5.00. P<0.05 was considered significant.

Data set [2] is described as follows: MTT cytotoxicity assay on Balb/C 3T3 mouse fibroblasts. In kind it is cell-based. The following applies: mouse, Cytotoxicity IC50. As to the method: (§2) A cytotoxicity assay was performed with representive analogs IMNDQ1 through IMNDQ11. […] MTT is a yellow tetrazolium salt that is reduced to purple formazan crystals by metabolically active cells. Cells (2.2×10^4 cells/well) were seeded in 96-well plate in Improved Minimum Essential Medium (IMEM). […] After 48 h incubation at 37° C. in the presence 5% CO2, the medium was aspirated and the cells washed twice to remove traces of chemical compounds. IMEM without phenol containing 10% (v/v) of 3 mg/ml MTT were added to each well. The plates were incubated for 4 h at 37° C. followed by aspiration. The plates were dried for 1 h in a 37° C. incubator. 100 μl of 0.04 N HCl in isopropanol were added to each well and incubated at room temperature (27° C.) in the dark for 2 h to dissolve the formazan crystals. The absorbance was measured spectrophotometrically at 570 nm in a plate reader. The concentration that reduces cell viability by 50% (IC50) was calculated for each compound. The toxicity for mammalian cells and the activity against T. cruzi were compared by calculating the selectivity index (SI), the ratio of IC50 for fibroblast cells/IC50 for parasites. The data were subjected to statistical analysis. All experiments were done in triplicate, the means and standard errors (S.E.) were determined. Data were analyzed by one way ANOVA and Tukey's multiple comparison test using GraphPad PRISM software version 5.00. P<0.05 was considered significant.
On the technique in general: Tetrazolium assays rely on reduction of a dye to a coloured formazan, in cell work by metabolically active cells.

The nature of data set [3]: Antitrypanosomal activity against Trypanosoma cruzi epimastigotes (parasite count). In kind it is cell-based. The following applies: mouse (fibroblasts) / Trypanosoma cruzi (parasites); ratio of IC50 for fibroblast cells/IC50 for parasites; read-out: Selectivity Index (Cytotoxicity/Activity). As to the method:
as §1

Data set [4] deals with Balb/C 3T3 mouse fibroblasts (clone A31). Nature of the data set: MTT cytotoxicity assay on Balb/C 3T3 mouse fibroblasts. In kind it is cell-based. Conditions: for IC50: 48 h; for Cytotoxicity compared with nifurtimox: Balb/C 3T3 mouse fibroblast cell line, FIG. 4. The procedure: as §2
In data set [5] the target is purified Trypanosoma cruzi tublin (Trypanosoma cruzi, UniProt P08562+Q27352). Nature of the data set: Tubulin assembly assay. The format is biochemical. The following applies: purified T. cruzi tubulin 1.2 mg/ml, absorbance at 405 nm, 30° C.; read-out: Tubulin polymerization Inhibition IC50. As to the method:
Tubulin assembly assays were conducted to assess tubulin polymerization inhibition. The assays were conducted in a 96-well microplate. Assembly reactions were conducted in a buffer containing 0.1 M PIPES (pH 6.9), 1 mM EGTA, 5 mM Mgcl, 1.2 mg/ml purified Trypanosoma cruzi tublin, at concentrations (0.6-40 μM) of the imido-substituted 1,4-naphthoquinone (IMDNQ 1-IMDNQ 11). Components of the reaction mixtures were added to the microplate and assembly was initiated by the addition of 1 mM GTP. The assembly reactions were assayed photometrically by measuring the absorbance at 405 nm using a microplate reader at 30° C.

The test system of the next data set is T. cruzi epimastigotes. Conditions: Ramos et al., 2009; cited from earlier work.
Where [6] appears, read: Balb/C 3T3 mouse fibroblasts, MTT, mean ± S.E. of three experiments, read-out: Cytotoxicity IC50.

The values below come from patent US9422231B2, “Method for inhibiting Trypanosoma cruzi” (HOWARD UNIVERSITY, priority 2011, dated 2016).

As usually defined, the melting point is the temperature of the solid-liquid transition. One may read the IC50 as the midpoint of a concentration-inhibition curve.

Values joined by “and” are separate entries in the source; they are usually repeats but may differ in a detail not shown here. Equal entries are not always repeated. Where two headings read alike, the source gives them in different places. Where only a bound is given, the exact number is not on record here.

As for `O=C1C(Br)=C(N(C(=O)c2ccc(Cl)cc2)C(=O)c2ccc(Cl)cc2)C(=O)c2ccccc21` [Example 23, 2-bis-(4-chlorobenzoyl)amino-3-bromo-1,4-naphthoquinone], the melting point was 266 to 269 °C.

In the case of `CC1CS(=O)(=O)CCN1/N=C/c1ccc([N+](=O)[O-])o1` (stereo not shown) [Nifurtimox, reference compound], the IC50 in data set [1] worked out at 10.7 µM.

Compound `O=C1C(Cl)=C(N(C(=O)c2ccccc2Cl)C(=O)c2ccccc2Cl)C(=O)c2ccccc21` [IMDNQ8, 2-Chloro-N-(2-chlorobenzoyl)-N-(3-chloro-1,4-dioxo-1,4-dihydronaphthalen-2-yl)-benzamide] displayed a melting point of 217 to 218 °C. In data set [1], the IC50 was 2.67 ± 0.33 µM and the “Selectivity Index (Cytotoxicity/Activity)” value is given as 10.17 ± 0.97. The compound further registered an IC50 at 48 h in data set [2] of 26.5 µM.

Consider `O=C1C(Cl)=C(N(C(=O)c2cccc(Cl)c2)C(=O)c2cccc(Cl)c2)C(=O)c2ccccc21` [IMDNQ10, 3-Chloro-N-(3-chlorobenzoyl)-N-(3-chloro-1,4-dioxo-1,4-dihydronaphthalen-2-yl)-benzamide], for which the melting point is 258 to 260 °C. Also, the selectivity ratio at 48 h in data set [3] was 275. In addition, the IC50 in data set [1] (Trypanosoma cruzi, TULAHUEN) worked out at 2.23 µM. Besides, the “Selectivity index, times better than nifurtimox” value in data set [1] (calculated selectivity index relative to nifurtimox) is on record as “about 25 times”. Moreover, the “Selectivity index greater/better than nifurtimox” value in data set [1] is given as “at least 300%”. Besides, half-maximal inhibition in data set [4] (mouse) (IC50) required 611 ± 10.3 µM. For the same compound, in data set [5], the IC50 was 8 µM.

Regarding `O=C1C(Cl)=C(N2C(=O)c3ccccc3C2=O)C(=O)c2ccccc21` [IMDNQ2], in data set [1], the IC50 is 4.89 µM and 4.83 µM; the “Selectivity index greater/better than nifurtimox” value is listed as “at least 300%”; the “Selectivity Index (Cytotoxicity/Activity)” value is 53.97 and 53.97 ± 5.95. In addition, in data set [4], the “Cytotoxicity compared with nifurtimox” value is listed as “far less cytotoxic than nifurtimox”. Besides, in data set [4] (setting [6]), the IC50 amounted to 253.7 ± 1.87 µM. Further, the IC50 in data set [5] was found to be 12 µM.

Consider `O=C1C(Br)=C(N(C(=O)c2cccc(Cl)c2)C(=O)c2cccc(Cl)c2)C(=O)c2ccccc21` [Example 22, 2-bis-(3-chlorobenzoyl)amino-3-bromo-1,4-naphthoquinone], for which the melting point is 204 to 206 °C.

For the compound `O=C1C(Cl)=C(N(C(=O)CCl)C(=O)CCl)C(=O)c2ccccc21` [IMDNQ11], the IC50 in data set [1] is 6.1 ± 0.38 µM; in data set [4] (setting [6]) it was 19.7 ± 3.71 µM; in data set [5], above 40 µM. In data set [1], the “Selectivity Index (Cytotoxicity/Activity)” value was determined as 3.20 ± 0.44.

Regarding `CC(C)(C)c1ccc(C(=O)N(C(=O)c2ccc(C(C)(C)C)cc2)C2=C(Cl)C(=O)c3ccccc3C2=O)cc1` [Example 24, 2-bis-(4-tert-butylbenzoyl)amino-3-chloro-1,4-naphthoquinone], the melting point was 257 to 260 °C.

`O=C1C(Br)=C(N(C(=O)c2ccccc2Cl)C(=O)c2ccccc2Cl)C(=O)c2ccccc21` [IMDNQ6, N-(3-Bromo-1,4-dioxo-1,4-dihydronaphthalen-2-yl)-2-chloro-N-(2-chlorobenzoyl)-benzamide] registered a melting point of 232 to 234 °C. The IC50 in data set [1] (Trypanosoma cruzi, TULAHUEN) was determined as 1.51 µM. For the same compound, in data set [1], the “Selectivity Index (Cytotoxicity/Activity)” value is reported as 9.43 ± 0.94. In data set [2], the IC50 at 48 h amounted to 14.2 µM.

Turning to `O=C1C(Br)=C(N(C(=O)c2ccc(F)cc2)C(=O)c2ccc(F)cc2)C(=O)c2ccccc21` [IMDNQ5, N-(3-Bromo-1,4-dioxo-1,4-dihydronaphthalen-2-yl)-4-fluoro-N-(4-fluorobenzoyl)-benzamide], the melting point was 170 to 172 °C. Moreover, in data set [1], the IC50 came out at 2.27 ± 0.15 µM and the “Selectivity Index (Cytotoxicity/Activity)” value was 5.70 ± 0.06. Further, inhibition in data set [2] was half-maximal at 12.8 µM (IC50 at 48 h).

`CCCC(=O)N(C(=O)CCC)C1=C(Cl)C(=O)c2ccccc2C1=O` [IMDNQ3]: the IC50 in data set [1] came out at 0.7 µM; in data set [4] (setting [6]) it was 21.7 µM; in data set [5], 3.2 µM. Moreover, the “Selectivity Index (Cytotoxicity/Activity)” value in data set [1] is 31.83 and 31.83 ± 3.17.

`O=C1C(Cl)=C(N2C(=O)CCC2=O)C(=O)c2ccccc21` [IMDNQ1, 2-chloro-3-(N-succinimidyl)-1,4-naphthoquinone]: in data set [1], the IC50 amounted to 2.77 µM; the “Selectivity index greater/better than nifurtimox” value was “at least 300%”; the “Selectivity Index (Cytotoxicity/Activity)” value is 60.25 and 60.25 ± 2.79. In data set [4], the “Cytotoxicity compared with nifurtimox” value is “far less cytotoxic than nifurtimox”. Besides, the IC50 in data set [4] (setting [6]) was > 100 µM and 166 µM. Also, in data set [5], the IC50 is 6 µM.

For `O=C1C(c2ccccc2)=C(c2ccccc2)C(=O)c2ccccc21` [2,3-diphenyl-1,4-naphthoquinone], the LD50 with T. cruzi epimastigotes is 2.5 µM.

Consider `COc1ccc(C(=O)N(C(=O)c2ccc(OC)cc2)C2=C(Cl)C(=O)c3ccccc3C2=O)cc1` [Example 28, 2-bis-(4-methoxybenzoyl)amino-3-chloro-1,4-naphthoquinone], for which the melting point was 283 to 287 °C.

`O=C1C(Br)=C(N(C(=O)c2ccccc2)C(=O)c2ccccc2)C(=O)c2ccccc21` [Example 21, 2-Dibenzoylamino-3-bromo-1,4-naphthoquinone] displayed a melting point of 234 to 238 °C.

Turning to `O=C1C(Cl)=C(N(C(=O)c2ccc(Cl)cc2)C(=O)c2ccc(Cl)cc2)C(=O)c2ccccc21` [IMDNQ7, 4-Chloro-N-(4-chlorobenzoyl)-N-(3-chloro-1,4-dioxo-1,4-dihydronaphthalen-2-yl)-benzamide], the melting point lay within 212 to 213 °C. For the same compound, in data set [1] (Trypanosoma cruzi, TULAHUEN), the IC50 amounted to 1.27 ± 0.15 µM. Also, the “Selectivity Index (Cytotoxicity/Activity)” value in data set [1] is 14.23 ± 1.62. In data set [4] (mouse), inhibition was half-maximal at 17.8 ± 2.21 µM (IC50).

As to `O=C1C(Cl)=C(N2C(=O)COCC2=O)C(=O)c2ccccc21` [IMDNQ4], in data set [1], the concentration for half-maximal inhibition (IC50) came to 4.93 ± 0.64 µM and the “Selectivity Index (Cytotoxicity/Activity)” value worked out at 7.43 ± 0.97. Also, in data set [4] (setting [6]), the IC50 is 35.5 ± 1.76 µM.

`O=C1C(Cl)=C(N(C(=O)c2ccccc2)C(=O)c2ccccc2)C(=O)c2ccccc21` [Example 20, 2-Dibenzoylamino-3-chloro-1,4-naphthoquinone] came in with a melting point of 294 to 297 °C.

In the case of `O=C1C(Cl)=C(N(C(=O)c2ccc(F)cc2)C(=O)c2ccc(F)cc2)C(=O)c2ccccc21` [IMDNQ9, N-(3-Chloro-1,4-dioxo-1,4-dihydronaphthalen-2-yl)-4-fluoro-N-(4-fluorobenzoyl)-benzamide], the melting point was 284 to 286 °C. For the same compound, in data set [1], the IC50 is 4.07 ± 0.23 µM and the “Selectivity Index (Cytotoxicity/Activity)” value was 5.43 ± 0.69. In data set [2], this compound displayed an IC50 at 48 h of 21.8 µM.
